Assay results as given in patent US7247617B2, “Sixteen-member macrolide antiinfective agents” (Kosan Biosciences Incorporated, priority 2004, dated 2007).

Key:
S. pneumoniae = assay: Biological activity against bacterial strains: S. pneumoniae; format: cell-based, Streptococcus pneumoniae; design: Biological Activity, S. pneumoniae ATCC6301 / Biological Activity, S. pneumoniae ATCC700671 / Biological Activity, S. pneumoniae ATCC700676* / Biological Activity, S. pneumoniae ATCC700677* / Biological Activity, S. pneumoniae ATCC700905* / Biological Activity, S. pneumoniae ATCC700906* / Biological Activity, S. pneumoniae ATCC49619: unit not given here; settings: for Biological Activity, S. pneumoniae ATCC6301: strain ATCC6301; for Biological Activity, S. pneumoniae ATCC49619: strain ATCC49619; for Biological Activity, S. pneumoniae ATCC700671: strain ATCC700671; for Biological Activity, S. pneumoniae ATCC700676*: strain ATCC700676, macrolide resistant strain; for Biological Activity, S. pneumoniae ATCC700677*: strain ATCC700677, macrolide resistant strain; for Biological Activity, S. pneumoniae ATCC700905*: strain ATCC700905, macrolide resistant strain; for Biological Activity, S. pneumoniae ATCC700906*: strain ATCC700906, macrolide resistant strain
S. epidermidis = assay: Biological activity against bacterial strains: S. epidermidis; format: cell-based, Staphylococcus epidermidis; settings: strain ATCC12228
E. faecalis = assay: Biological activity against bacterial strains: E. faecalis; format: cell-based, Enterococcus faecalis; settings: strain ATCC51575
Haemophilus Influenzae = assay: H. influenzae Activity; format: cell-based
S. aureus = assay: Biological activity against bacterial strains: S. aureus; format: cell-based, Staphylococcus aureus; design: unit not given here; settings: for Biological Activity, S. aureus ATCC6538p: strain ATCC6538p; for Biological Activity, S. aureus ATCC14154*: strain ATCC14154, macrolide resistant strain; for Biological Activity, S. aureus ATCC29213: strain ATCC29213; for Biological Activity, S. aureus ATCC33591*: strain ATCC33591, macrolide resistant strain; for Biological Activity, S. aureus ATCCBAA-39*: strain ATCCBAA-39, macrolide resistant strain; for Biological Activity, S. aureus ATCCBAA-44*: strain ATCCBAA-44, macrolide resistant strain
[1] = test system: a series of bacterial strains; assay: Biological activity against a series of bacterial strains (overall statements); format: cell-based
Source text: Results for S. pneumoniae, S. aureus, S. epidermidis, and E. faecalis are provided in Table B. Data on activity against H. influenzae for selected compounds are presented in Table C.

CCC1OC(=O)CC(O)C(C)C(OC2OC(C)C(O)C(N(C)C)C2O)C(CC=O)CC(C)C(=NOCC=Cc2cnc3ccccc3c2)C=CC(C)=CC1COC(=O)NCc1ccccc1 (stereo not shown) [Compound FF]
Biological Activity, S. pneumoniae ATCC6301 (S. pneumoniae): 0.2 | Biological Activity, S. pneumoniae ATCC49619 (S. pneumoniae): 0.2 | Biological Activity, S. pneumoniae ATCC700671 (S. pneumoniae): 0.2 | Biological Activity, S. pneumoniae ATCC700676* (S. pneumoniae): 0.049 | Biological Activity, S. pneumoniae ATCC700677* (S. pneumoniae): 0.2 | Biological Activity, S. pneumoniae ATCC700905* (S. pneumoniae): 0.098 | Biological Activity, S. pneumoniae ATCC700906* (S. pneumoniae): >12.5 | Biological Activity, S. epidermidis ATCC12228 (S. epidermidis): 3.12 | Biological Activity, E. faecalis ATCC51575 (E. faecalis): >12.5 | H. influenzae Activity, strain ATCC9006 (Haemophilus Influenzae): 12.5 | H. influenzae Activity, strain ATCC49766 (Haemophilus Influenzae): 12.5 | Biological Activity, S. aureus ATCC6538p (S. aureus): 1.56 | Biological Activity, S. aureus ATCC14154* (S. aureus): 6.25 | Biological Activity, S. aureus ATCC29213 (S. aureus): 3.12 | Biological Activity, S. aureus ATCC33591* (S. aureus): 12.5 | Biological Activity, S. aureus ATCCBAA-39* (S. aureus): >12.5 | Biological Activity, S. aureus ATCCBAA-44* (S. aureus): >12.5

CCC1OC(=O)CC(O)C(C)C(OC2OC(C)C(O)C(N(C)C)C2O)C(CC=O)CC(C)C(=NOCC#Cc2cnc3ccccc3c2)C=CC(C)=CC1CO (single isomer, unassigned) [Compound E]
Biological Activity, S. pneumoniae ATCC6301 (S. pneumoniae): 0.025 | Biological Activity, S. pneumoniae ATCC49619 (S. pneumoniae): 0.025 | Biological Activity, S. pneumoniae ATCC700671 (S. pneumoniae): 0.025 | Biological Activity, S. pneumoniae ATCC700676* (S. pneumoniae): 0.025 | Biological Activity, S. pneumoniae ATCC700677* (S. pneumoniae): >12.5 | Biological Activity, S. pneumoniae ATCC700905* (S. pneumoniae): 0.049 | Biological Activity, S. pneumoniae ATCC700906* (S. pneumoniae): >12.5 | Biological Activity, S. epidermidis ATCC12228 (S. epidermidis): 0.098 | activity of Z-configuration oxime versus its E counterpart (in words) [1]: more active than compound D | Biological Activity, E. faecalis ATCC51575 (E. faecalis): >12.5 | Biological Activity, S. aureus ATCC6538p (S. aureus): 0.098 | Biological Activity, S. aureus ATCC14154* (S. aureus): 0.39 | Biological Activity, S. aureus ATCC29213 (S. aureus): 0.39 | Biological Activity, S. aureus ATCC33591* (S. aureus): >12.5 | Biological Activity, S. aureus ATCCBAA-39* (S. aureus): >12.5 | Biological Activity, S. aureus ATCCBAA-44* (S. aureus): >12.5

CC[C@H]1OC(=O)C[C@@H](O)[C@H](C)[C@@H](O[C@@H]2O[C@H](C)[C@@H](O)[C@H](N(C)C)[C@H]2O)[C@@H](CC=O)C[C@@H](C)C(=O)/C=C/C(C)=C/[C@@H]1CO [OMT, 5-O-mycaminosyltylonolide, reference compound]
Biological Activity, S. pneumoniae ATCC6301 (S. pneumoniae): 0.025 | Biological Activity, S. pneumoniae ATCC49619 (S. pneumoniae): 0.098 | Biological Activity, S. pneumoniae ATCC700671 (S. pneumoniae): 0.049 | Biological Activity, S. pneumoniae ATCC700676* (S. pneumoniae): 0.78 | Biological Activity, S. pneumoniae ATCC700677* (S. pneumoniae): 6.25 | Biological Activity, S. pneumoniae ATCC700905* (S. pneumoniae): 0.78 | Biological Activity, S. pneumoniae ATCC700906* (S. pneumoniae): >12.5 | Biological Activity, S. epidermidis ATCC12228 (S. epidermidis): 0.39 | Biological Activity, E. faecalis ATCC51575 (E. faecalis): >12.5 | H. influenzae Activity, strain ATCC9006 (Haemophilus Influenzae): 1.56 | H. influenzae Activity, strain ATCC49766 (Haemophilus Influenzae): 1.56 | H. influenzae Activity, strain EH001 (Haemophilus Influenzae; strain EH001): 3.12 | H. influenzae Activity, strain EH002 (Haemophilus Influenzae; strain EH002): 6.25 | H. influenzae Activity, strain EH003 (Haemophilus Influenzae; strain EH003): 1.56 | Biological Activity, S. aureus ATCC6538p (S. aureus): 0.39 | Biological Activity, S. aureus ATCC14154* (S. aureus): 1.56 | Biological Activity, S. aureus ATCC29213 (S. aureus): 0.78 | Biological Activity, S. aureus ATCC33591* (S. aureus): >12.5 | Biological Activity, S. aureus ATCCBAA-39* (S. aureus): >12.5 | Biological Activity, S. aureus ATCCBAA-44* (S. aureus): >12.5

CC[C@H]1OC(=O)C[C@@H](O)[C@H](C)[C@@H](OC2OC(C)C(O)C(N(C)C)C2O)[C@@H](CC=O)C[C@@H](C)C(=N\OCCOc2ccccc2)/C=C/C(C)=C/C1CO (stereo partly shown) [Compound IIb]
Biological Activity, S. pneumoniae ATCC6301 (S. pneumoniae): 0.025 | Biological Activity, S. pneumoniae ATCC49619 (S. pneumoniae): 0.20 | Biological Activity, S. pneumoniae ATCC700671 (S. pneumoniae): 0.20 | Biological Activity, S. pneumoniae ATCC700676* (S. pneumoniae): 0.025 | Biological Activity, S. pneumoniae ATCC700677* (S. pneumoniae): 1.56 | Biological Activity, S. pneumoniae ATCC700905* (S. pneumoniae): 0.20 | Biological Activity, S. pneumoniae ATCC700906* (S. pneumoniae): >12.5 | Biological Activity, S. epidermidis ATCC12228 (S. epidermidis): 0.78 | activity of Z-configuration oxime versus its E counterpart (in words) [1]: more active than compound Ia | Biological Activity, E. faecalis ATCC51575 (E. faecalis): >12.5 | Biological Activity, S. aureus ATCC6538p (S. aureus): 0.39 | Biological Activity, S. aureus ATCC14154* (S. aureus): 1.56 | Biological Activity, S. aureus ATCC29213 (S. aureus): 1.56 | Biological Activity, S. aureus ATCC33591* (S. aureus): >12.5 | Biological Activity, S. aureus ATCCBAA-39* (S. aureus): >12.5 | Biological Activity, S. aureus ATCCBAA-44* (S. aureus): >12.5

CCC1OC(=O)CC(O)C(C)C(OC2OC(C)C(O)C(N(C)C)C2O)C(CCN2CC(C)CC(C)C2)CC(C)C(=NO)C=CC(C)=CC1CO (stereo not shown) [Compound 9, 20-deoxy(3,5-dimethyl-1-piperidine)OMT 9-oxime, reference compound]
antibiotic / antibacterial activity (in words) [1]: no antibiotic activity
